Tests used:
[1] = Molar enthalpy of transition or fusion; conditions: Crystal; DSC
[2] = for vapor or sublimation pressure: Transpiration method

CC(C)(O)C(=O)O [2-hydroxy-2-methylpropanoic acid]
Conditions	Molar enthalpy of transition or fusion [kcal/mol]
[1]	4.21

Conditions	mass density [kg/m3]
[2], 293 K, 101.33 kPa, Crystal, Pycnometric method	1240

[2]
Conditions	Normal melting temperature [°C]	vapor or sublimation pressure [kPa]
313.3 K, Crystal	–	0.005081
318.2 K, Crystal	–	0.008221
323.2 K, Crystal	–	0.01418
328.1 K, Crystal	–	0.02187
333.1 K, Crystal	–	0.03606
338.1 K, Crystal	–	0.05555
343.1 K, Crystal	–	0.08884
347.8 K, Crystal	–	0.139
356 K, Liquid	–	0.2724
359.8 K, Liquid	–	0.3463
363.7 K, Liquid	–	0.4479
367.7 K, Liquid	–	0.5693
369.3 K, Liquid	–	0.6241
371.7 K, Liquid	–	0.7211
373 K, Liquid	–	0.7664
375.6 K, Liquid	–	0.8814
377.1 K, Liquid	–	0.9824
379.5 K, Liquid	–	1.093
379.6 K, Liquid	–	1.097
Crystal, DTA	75	–
